From US12059425B2, “Heterocyclic compounds and uses thereof” (Kumquat Biosciences Inc., priority 2022, dated 2024) come the findings set out here.

What all share (type): biochemical
The target in one experiment is T1, K-Ras G12D (Homo sapiens, UniProt P01116, G12D).
T1 construct: made in house; host or cells: E. coli, e.g. BL21 (DE3)
Briefly: PPI-HTRF assay, K-Ras G12D / SOS1 interaction. The following applies: HTRF, K-Ras G12D; read-out: PPI-HTRF-5 nM (K-Ras G12D IC50). The text has this:
(§1) This assay can be also used to assess a selective inhibition or reduction of signaling output of a mutant Ras protein relative to a wildtype, or relative to a different mutant Ras protein. For example, the equilibrium interaction of wildtype Kras or K-Ras mutant (e.g., wildtype or a mutant thereof) with SOS1 (e.g., hSOS1) can be assessed as a proxy or an indication for a subject compound's ability to bind and inhibit Ras protein. HTRF assay detects from (i) a fluorescence resonance energy transfer (FRET) donor (e.g., antiGST-Europium) that is bound to GST-tagged K-Ras mutant to (ii) a FRET acceptor (e.g., anti-6His-XL665) bound to a His-tagged hSOS1.
(§2) The assay buffer can contain ˜5 mM HEPES pH 7.4, ˜150 mM NaCl, ˜1 mM DTT, 0.05% BSA and 0.0025% (v/v) Igepal. A Ras working solution is prepared in an assay buffer containing typically a suitable amount of the protein construct (e.g., GST-tagged K-Ras mutant) and the FRET donor (e.g., antiGST-Eu(K) from Cisbio, France). A SOS1 working solution is prepared in an assay buffer containing suitable amount of the protein construct (e.g., His-hSOS1) and the FRET acceptor (e.g., anti-6His-XL665 from Cisbio, France). A suitable amount of the protein construct will depend on the range of activity or range of IC50 values being detected or under investigation. For detecting IC50 within a range of 500 nM, the protein constructs of the same range of molarity can be utilized.
(§3) A fixed volume of DMSO with or without test compound is transferred into a 384-well plate. Ras working solution is added to all wells of the test plate. SOS1 working solution is added to all wells except for those that are subsequently filled the inhibitor control solution. Upon incubation for about 10 minutes or longer, the fluorescence is measured with a M1000Pro plate reader (Tecan) using HTRF detection (excitation 337 nm, emission 1: 620 nm, emission 2: 665 nm). Compounds are tested in duplicate at different concentrations (for example, 10 μM, 2.5 μM, 0.63 μM, 0.16 μM, 0.04 μM, 0.01 μM test compound). The ratiometric data (i.e., emission 2 divided by emission 1) is used to calculate IC50 values against Ras using GraphPad Prism (GraphPad software). Following this general procedure, samples are tested with or without a subject compound disclosed herein including compounds exemplified in Table 1 to assess their abilities to inhibit a mutant K-Ras relative to another K-Ras (e.g., different mutant or wildtype). Signaling output measured in terms of IC50 values can be obtained, a ratio of IC50 against one mutant relative to another mutant can be calculated. For instance, a selective reduction of K-Ras G12D signaling output can be evidenced by a ratio greater than one. In particular, a selective reduction of K-Ras G12D signaling relative to K-Ras WT signaling is evidenced if the ratio of IC50 (against K-Ras WT) to IC50 (against K-Ras G12D) is greater than 1.
(In general: TR-FRET usually uses a lanthanide donor and a delayed reading to cut background.)

A further experiment deals with T2, wildtype K-Ras (Homo sapiens, UniProt P01116).
T2 construct: made in house; host or cells: E. coli, e.g. BL21 (DE3)
Briefly: PPI-HTRF assay, wildtype K-Ras / SOS1 interaction. The following applies: HTRF, K-Ras wt; read-out: PPI-HTRF-5 nM (K-Ras wt IC50).
Description: as §1, §2, §3

Another experiment addresses T3, K-Ras G12S (Homo sapiens, UniProt P01116, G12S).
T3 construct: made in house; host or cells: E. coli, e.g. BL21 (DE3)
As to the kind of experiment: PPI-HTRF assay, K-Ras G12S / SOS1 interaction. Particulars: read-out: PPI-HTRF-5 nM (K-Ras G12S IC50).
Description: as §1, §2, §3

The next experiment addresses T4, K-Ras G12V (Homo sapiens, UniProt P01116, G12V).
T4 construct: made in house; host or cells: E. coli, e.g. BL21 (DE3)
Briefly: PPI-HTRF assay, K-Ras G12V / SOS1 interaction. Particulars: HTRF, K-Ras G12V; read-out: PPI-HTRF-5 nM (K-Ras G12V IC50).
Description: as §1, §2, §3

A word on the IC50: it is the concentration at which inhibition is half-maximal.

T3 sequence (P01116 1-188 isoform P01116-2 G12S): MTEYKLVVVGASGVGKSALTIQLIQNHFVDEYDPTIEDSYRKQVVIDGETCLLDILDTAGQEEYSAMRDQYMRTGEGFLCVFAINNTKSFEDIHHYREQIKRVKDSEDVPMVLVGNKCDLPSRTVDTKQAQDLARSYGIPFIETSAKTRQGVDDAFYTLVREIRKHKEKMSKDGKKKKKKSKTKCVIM
T1 sequence (P01116 1-188 isoform P01116-2 G12D): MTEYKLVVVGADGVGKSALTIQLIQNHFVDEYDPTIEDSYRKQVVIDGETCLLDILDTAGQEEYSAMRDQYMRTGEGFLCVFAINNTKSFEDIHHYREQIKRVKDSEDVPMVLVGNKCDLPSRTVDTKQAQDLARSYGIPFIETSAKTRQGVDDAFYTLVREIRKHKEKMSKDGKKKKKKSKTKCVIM
T4 sequence (P01116 1-188 isoform P01116-2 G12V): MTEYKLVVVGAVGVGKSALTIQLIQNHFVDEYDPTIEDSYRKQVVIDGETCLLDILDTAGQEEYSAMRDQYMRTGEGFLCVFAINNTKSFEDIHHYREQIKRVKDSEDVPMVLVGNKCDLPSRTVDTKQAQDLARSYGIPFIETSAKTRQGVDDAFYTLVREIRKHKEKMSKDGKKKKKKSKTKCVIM
T2 sequence (P01116 1-188 isoform P01116-2): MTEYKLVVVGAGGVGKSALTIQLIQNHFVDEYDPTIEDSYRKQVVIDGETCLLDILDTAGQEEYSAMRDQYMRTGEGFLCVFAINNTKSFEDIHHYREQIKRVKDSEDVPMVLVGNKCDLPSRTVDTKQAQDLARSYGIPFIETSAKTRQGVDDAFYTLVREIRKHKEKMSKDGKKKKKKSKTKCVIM

For `CCN[C@@H]1CC[C@H]2COc3c(Cl)c(-c4ccc(F)c5sc(N)c(C#N)c45)c(F)c4nc(OC[C@@]56CCCN5C[C@H](F)C6)nc(c34)N2C1` [compound 119, 2-amino-4-((5aS,8R)-3-chloro-8-(ethylamino)-1-fluoro-12-(((2R,7aS)-2-fluorotetrahydro-1H-pyrrolizin-7a(5H)-yl)methoxy)-5,5a,6,7,8,9-hexahydropyrido[2′,1′:3,4][1,4]oxazepino [5,6,7-de]quinazolin-2-yl)-7-fluorobenzo[b]thiophene-3-carbonitrile], the half-inhibitory concentration (IC50) at K-Ras G12D, on wildtype K-Ras, at K-Ras G12S and at K-Ras G12V was < 5 µM in each case.

For the compound `COCCN1c2nc(OC[C@@]34CCCN3C[C@H](F)C4)nc3c(F)c(-c4ccc(F)c5sc(N)c(C#N)c45)c(Cl)c(c23)OCC2COCC21` (stereo partly drawn) [compound 163, 2-amino-4-(6-chloro-4-fluoro-2-(((2R,7aS)-2-fluorotetrahydro-1H-pyrrolizin-7a(5H)-yl)methoxy)-12-(2-methoxyethyl)-8a,9,11a,12-tetrahydro-8H,11H-furo[3′,4′:6,7][1,5]oxazocino[4,3,2-de]quinazolin-5-yl)-7-fluorobenzo[b]thiophene-3-carbonitrile], the IC50 on K-Ras G12D, on wildtype K-Ras, at K-Ras G12S and on K-Ras G12V was < 5 µM in each case.

For the compound `CN1c2nc(OC[C@@]34CCCN3C[C@H](F)C4)nc3c(F)c(-c4ccc(F)c5sc(N)c(C#N)c45)c(Cl)c(c23)OCC2COCCC21` (stereo partly drawn) [compound 198, 2-amino-4-(6-chloro-4-fluoro-2-(((2R,7aS)-2-fluorotetrahydro-1H-pyrrolizin-7a(5H)-yl)methoxy)-13-methyl-8a,9,11,12,12a,13-hexahydro-8H-pyrano[4′,3′:6,7][1,5]oxazocino[4,3,2-de]quinazolin-5-yl)-7-fluorobenzo[b]thiophene-3-carbonitrile], the IC50 on K-Ras G12D, at wildtype K-Ras, on K-Ras G12S and at K-Ras G12V was < 5 µM each time.

Regarding `CN1c2nc(OC[C@@]34CCCN3C[C@H](F)C4)nc3c(F)c(-c4ccc(F)c5sc(N)c(C#N)c45)c(Cl)c(c23)OC2COCC21` (stereo partly drawn) [compound 166, 2-amino-4-(6-chloro-4-fluoro-2-(((2R,7aS)-2-fluorotetrahydro-1H-pyrrolizin-7a(5H)-yl)methoxy)-11-methyl-7a,8,10a,11-tetrahydro-10H-furo[3′,4′:2,3][1,4]oxazepino[5,6,7-de]quinazolin-5-yl)-7-fluorobenzo[b]thiophene-3-carbonitrile], the IC50 on K-Ras G12D, on wildtype K-Ras, at K-Ras G12S and on K-Ras G12V was < 5 µM each time.

On to `CN1c2nc(OC[C@@]34CCCN3C[C@H](F)C4)nc3c(F)c(-c4ccc(F)c5sc(N)c(C#N)c45)c(Cl)c(c23)OCC2OCCCC21` (stereo partly drawn) [compound 199, 2-amino-4-(6-chloro-4-fluoro-2-(((2R,7aS)-2-fluorotetrahydro-1H-pyrrolizin-7a(5H)-yl)methoxy)-13-methyl-8,8a,11,12,12a,13-hexahydro-10H-pyrano[3′,2′:6,7][1,5]oxazocino[4,3,2-de]quinazolin-5-yl)-7-fluorobenzo[b]thiophene-3-carbonitrile], for which the IC50 at K-Ras G12D, on wildtype K-Ras, on K-Ras G12S and on K-Ras G12V was < 5 µM in each case.

Consider `N#Cc1c(N)sc2c(F)ccc(-c3c(Cl)c4c5c(nc(OC[C@@]67CCCN6C[C@H](F)C7)nc5c3F)N3CCC(C(F)F)CC3CO4)c12` (stereo partly drawn) [compound 194, 2-amino-4-(6-chloro-10-(difluoromethyl)-4-fluoro-2-(((2R,7aS)-2-fluorotetrahydro-1H-pyrrolizin-7a(5H)-yl)methoxy)-8,8a,9,10,11,12-hexahydropyrido[2′,1′:3,4][1,4]oxazepino [5,6,7-de]quinazolin-5-yl)-7-fluorobenzo[b]thiophene-3-carbonitrile], for which the IC50 on K-Ras G12D, on wildtype K-Ras, at K-Ras G12S and at K-Ras G12V was < 5 µM throughout.

For the compound `CC(O)C1C[C@H]2CCCN2c2nc(OC[C@@]34CCCN3C[C@H](F)C4)nc3c(F)c(-c4ccc(F)c5sc(N)c(C#N)c45)c(Cl)c(c23)O1` (single isomer, unassigned) [compound 160], the IC50 on K-Ras G12D is < 5 µM.

Regarding `N#Cc1c(N)sc2c(F)ccc(-c3c(Cl)c4c5c(nc(OC[C@@]67CCCN6C[C@H](F)C7)nc5c3F)N3[C@H](CO4)C[C@@H]3COC(F)F)c12` [compound 210, 2-amino-4-((8aS,10R)-6-chloro-10-((difluoromethoxy)methyl)-4-fluoro-2-(((2R,7aS)-2-fluorotetrahydro-1H-pyrrolizin-7a(5H)-yl)methoxy)-8,8a,9,10-tetrahydroazeto[2′,1′:3,4][1,4]oxazepino [5,6,7-de]quinazolin-5-yl)-7-fluorobenzo[b]thiophene-3-carbonitrile], the IC50 on K-Ras G12D, at wildtype K-Ras, on K-Ras G12S and on K-Ras G12V was > 5 µM in each case.

Consider `CC(O)C1C[C@H]2CCCN2c2nc(OC[C@@]34CCCN3C[C@H](F)C4)nc3c(F)c(-c4ccc(F)c5sc(N)c(C#N)c45)c(Cl)c(c23)O1` (single isomer, unassigned) [compound 122], for which the IC50 at wildtype K-Ras, at K-Ras G12S and at K-Ras G12V was < 5 µM throughout.

Turning to `CN1c2nc(OC[C@@]34CCCN3C[C@H](F)C4)nc3c(F)c(-c4ccc(F)c5sc(N)c(C#N)c45)c(Cl)c(c23)OCC2CCCC21` (stereo partly drawn) [compound 165, 2-amino-4-(6-chloro-4-fluoro-2-(((2R,7aS)-2-fluorotetrahydro-1H-pyrrolizin-7a(5H)-yl)methoxy)-12-methyl-8a,9,10,11,11a,12-hexahydro-8H-cyclopenta[6,7][1,5]oxazocino[4,3,2-de]quinazolin-5-yl)-7-fluorobenzo[b]thiophene-3-carbonitrile], the IC50 at K-Ras G12D was < 5 µM.

On to `N#Cc1c(N)sc2c(F)ccc(-c3c(Cl)c4c5c(nc(OC[C@@]67CCCN6C[C@H](F)C7)nc5c3F)N3CCC[C@@H]3CC(C(F)F)O4)c12` (single isomer, unassigned) [compound 123], for which the IC50 at wildtype K-Ras, at K-Ras G12S and on K-Ras G12V was < 5 µM each time.

With `CC(C)C1NCC12CC[C@H]1COc3c(Cl)c(-c4ccc(F)c5sc(N)c(C#N)c45)c(F)c4nc(OC[C@@]56CCCN5C[C@H](F)C6)nc(c34)N1C2` (single isomer, unassigned) [compound 179], the 50% inhibitory concentration (IC50) is < 5 µM at K-Ras G12D and > 5 µM on K-Ras G12S.

Turning to `CC(C)C1NCC12CC[C@H]1COc3c(Cl)c(-c4ccc(F)c5sc(N)c(C#N)c45)c(F)c4nc(OC[C@@]56CCCN5C[C@H](F)C6)nc(c34)N1C2` (single isomer, unassigned) [compound 130], the IC50 on wildtype K-Ras, on K-Ras G12S and at K-Ras G12V was < 5 µM each time.
